From patent US20210115104A1, “AMYLIN ANALOGUES” (Zealand Pharma A/S, priority 2015, published 2021)
*1 amine or outer side, *2 acyl side, *3 side chain or, on linkers, in order; H or OH if unused. Where a SMILES comes first, the peptide text is derived from it. Bridges are numbered along the chain shown (N, C = ends). [ ]: non-standard residue; d: D form. The star is where a group is joined. C20 diacid = O=C(O)CCCCCCCCCCCCCCCCCCC(=O)*; γGlu = O=C(O)[C@H](CCC(=O)[*:2])N[*:1]; Hyp = O=C(O)[C@@H]1C[C@@H](O)CN1; NMeI = CC[C@H](C)[C@H](NC)C(=O)O; Aad = N[C@@H](CCCC(=O)O)C(=O)O; Sar = CNCC(=O)O

Assays:
[1] = molecular target: T1, human calcitonin receptor (hCTR2) (Homo sapiens, UniProt P30988); assay: hCTR2 cAMP assay (AlphaScreen) in COS7 cells; assay type: cell-based; settings: cAMP induction, COS7 cells expressing hCTR2; Table 1; read-out: hCTR2 EC50
T1 construct: expressed in transfected cells
T1 sequence (P30988 25-474): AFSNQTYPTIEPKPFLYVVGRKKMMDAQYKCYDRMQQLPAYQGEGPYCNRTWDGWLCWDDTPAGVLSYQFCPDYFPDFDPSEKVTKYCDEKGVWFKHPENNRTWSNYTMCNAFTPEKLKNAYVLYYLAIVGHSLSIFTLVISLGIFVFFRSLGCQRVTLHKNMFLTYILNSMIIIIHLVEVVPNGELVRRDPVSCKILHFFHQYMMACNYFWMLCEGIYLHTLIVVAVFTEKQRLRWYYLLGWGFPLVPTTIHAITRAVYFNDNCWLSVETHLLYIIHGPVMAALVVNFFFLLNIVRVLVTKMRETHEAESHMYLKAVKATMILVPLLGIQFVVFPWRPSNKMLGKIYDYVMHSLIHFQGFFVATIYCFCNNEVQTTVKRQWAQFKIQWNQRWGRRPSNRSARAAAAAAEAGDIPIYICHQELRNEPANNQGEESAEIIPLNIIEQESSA
How it was run: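 cAMP induction, read by AlphaScreen after lysis, gives EC50 values via 4PL curve fitting. Peptides were applied at rising concentrations for 15 min at 37 °C, with IBMX and 0.1% casein in HEPES-buffered Tyrode pH 7.4, to COS7 cells (no endogenous RAMPs) stably expressing human CTR2.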

[2] = molecular target: T2, human amylin receptor 3 (hAMYR3), hCTR2 co-expressed with hRAMP3 (Homo sapiens, UniProt O60896+P30988); assay: hAMYR3 cAMP assay (AlphaScreen) in COS7 cells; assay type: cell-based; settings: cAMP induction, COS7 cells expressing hAMYR3; Table 1; read-out: hAMYR3 EC50
T2 construct: expressed in transfected cells
T2 sequence (P30988 25-474): T1 sequence (P30988 25-474)
T2 sequence (O60896 24-148 partner): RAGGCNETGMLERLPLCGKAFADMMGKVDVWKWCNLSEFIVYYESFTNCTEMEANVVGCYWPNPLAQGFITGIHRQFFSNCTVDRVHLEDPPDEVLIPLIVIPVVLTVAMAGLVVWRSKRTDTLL
How it was run: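 EC50 values derive from 4PL curve fits of cAMP (AlphaScreen) in lysates of RAMP-naive COS7 cells stably carrying hCTR2 plus hRAMP3. Peptide dilution series were applied for 15 min at 37 °C in pH 7.4 Tyrode buffer containing 100 µM IBMX and 0.1% casein.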

[3] = Assessment of physical stability (Thioflavin T fibrillation); assay type: physicochemical; parameters: key: FND = fibrillation not detected; FD = fibrillation detected; settings: 1 mg/ml, 40° C., ThT; for Fibrillation pH 4.0 (Ac): 50 mM acetate buffer pH 4.0, 96 hours; for Fibrillation pH 7.0 (His): 50 mM histidine buffer pH 7.0, 96 hours; for Fibrillation pH 7.0 (Phos.): 50 mM phosphate buffer pH 7.0, 96 hours
How it was run: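 Fibrillation lag-time, in hours, taken where regressions of the initial stable phase and the growth phase intersect. ThT (40 μM) fluorescence monitored at 40 °C for 96 h, 10-min reads each preceded by 300 s mixing. Peptide at 1 mg/ml in 50 mM buffers: phosphate or histidine pH 7.0, acetate pH 4.0.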

[4] = Assessment of chemical stability (RP-HPLC normalized purity); assay type: physicochemical; settings: for Normalized purity after 7 days, 40° C., pH 4: pH 4, 0.2 mg/ml; for Normalized purity after 7 days, 40° C., pH 4 / Normalized purity after 7 days, 40° C., pH 6 / Normalized purity after 7 days, 40° C., pH 7.5 / Normalized purity after 7 days, 40° C., pH 9: Table 1; for Normalized purity after 7 days, 40° C., pH 6: pH 6, 0.2 mg/ml; for Normalized purity after 7 days, 40° C., pH 7.5: pH 7.5, 0.2 mg/ml; for Normalized purity after 7 days, 40° C., pH 9: pH 9, 0.2 mg/ml
How it was run: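 Purity after 7 days at 40° C is expressed relative to T=0 (set to 100) for each pH. Samples at 0.2 mg/ml, pH 4, 6, 7.5 or 9, analyzed by RP-HPLC with UV 220 nm on C8 (ammonium formate) or C18 (TFA) gradients.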

EC50 [1]	EC50 [2]	Fibrillation pH 4.0 (Ac) [3]	Fibrillation pH 7.0 (His) [3]	Fibrillation pH 7.0 (Phos.) [3]	Normalized purity after 7 days, 40° C., pH 4 [4]	Normalized purity pH 4 (Table 5) ([4]; pH 4, repeat of Example 6 for pairs with/without Asn-Asn at 21-22)	Normalized purity after 7 days, 40° C., pH 6 [4]	Normalized purity pH 6 (Table 5) ([4]; pH 6, repeat of Example 6 for pairs with/without Asn-Asn at 21-22)	Normalized purity after 7 days, 40° C., pH 7.5 [4]	Normalized purity pH 7.5 (Table 5) ([4]; pH 7.5, repeat of Example 6 for pairs with/without Asn-Asn at 21-22)	Normalized purity after 7 days, 40° C., pH 9 [4]	Normalized purity pH 9 (Table 5) ([4]; pH 9, repeat of Example 6 for pairs with/without Asn-Asn at 21-22)	SMILES
0.16 nM	0.2 nM	FND	FND	FND	A (A = >90%)	A (A = >90%)	A (A = >90%)	A (A = >90%)	A (A = >90%)	A (A = >90%)	B (B = 70-90%)	A (A = >90%)	CC[C@H](C)[C@@H](C(=O)N[C@@H](CC(C)C)C(=O)N[C@@H](CO)C(=O)N[C@@H](CO)C(=O)N[C@H](C(=O)N[C@@H](CCC(=O)O)C(=O)N[C@H](C(=O)NCC(=O)N[C@@H](CO)C(=O)N[C@@H](CC(N)=O)C(=O)N[C@H](C(=O)N1C[C@H](O)C[C@H]1C(N)=O)[C@@H](C)O)C(C)C)[C@@H](C)O)N(C)C(=O)[C@H](C)NC(=O)CN(C)C(=O)[C@H](Cc1ccccc1)NC(=O)[C@H](CO)NC(=O)[C@H](CO)NC(=O)[C@H](CCCNC(=N)N)NC(=O)[C@H](CCC(N)=O)NC(=O)[C@H](CC(C)C)NC(=O)[C@H](Cc1ccccc1)NC(=O)[C@H](CCCC(=O)O)NC(=O)[C@H](C)NC(=O)[C@H](CC(C)C)NC(=O)[C@H](CCCNC(=N)N)NC(=O)[C@H](CC(=O)O)NC(=O)[C@@H](NC(=O)[C@H](C)NC(=O)[C@@H]1CSSC[C@H](NC(=O)[C@H](CCCNC(=N)N)NC(=O)CC[C@H](NC(=O)CCCCCCCCCCCCCCCCCCC(=O)O)C(=O)O)C(=O)N[C@@H](CCC(N)=O)C(=O)N[C@@H]([C@@H](C)O)C(=O)N[C@@H](C)C(=O)N[C@@H]([C@@H](C)O)C(=O)N1)[C@@H](C)O [Compound 89, [19CD]-isoGlu-R-C( )-QTAT-C( )-ATDRLA-Aad-FLQRSSF-Gly(Me)-A-Ile(Me)-LSSTEVGSNT-Hyp-NH2] ({C20 diacid-γGlu}-RCQTATCATDRLA[Aad]FLQRSSF[Sar]A[NMeI]LSSTEVGSNT[Hyp]-NH2; disulfide 2-7)
0.08 nM	0.17 nM	FND	FND	FND	A (A = >90%)	–	A (A = >90%)	–	A (A = >90%)	–	A (A = >90%)	–	CC[C@H](C)[C@@H](C(=O)N[C@@H](CC(C)C)C(=O)N[C@@H](CO)C(=O)N[C@@H](CO)C(=O)N[C@H](C(=O)N[C@@H](CCC(=O)O)C(=O)N[C@H](C(=O)NCC(=O)N[C@@H](CO)C(=O)NCC(=O)N[C@H](C(=O)N1C[C@H](O)C[C@H]1C(N)=O)[C@@H](C)O)C(C)C)[C@@H](C)O)N(C)C(=O)[C@H](C)NC(=O)CN(C)C(=O)[C@H](Cc1ccccc1)NC(=O)[C@H](CO)NC(=O)[C@H](CO)NC(=O)[C@H](CCCNC(=N)N)NC(=O)[C@H](CCC(N)=O)NC(=O)[C@H](CC(C)C)NC(=O)[C@H](Cc1ccccc1)NC(=O)[C@H](Cc1c[nH]cn1)NC(=O)[C@H](C)NC(=O)[C@H](CC(C)C)NC(=O)[C@H](CCCNC(=N)N)NC(=O)[C@H](CC(=O)O)NC(=O)[C@@H](NC(=O)[C@H](C)NC(=O)[C@@H]1CSSC[C@H](NC(=O)[C@H](CCCNC(=N)N)NC(=O)CC[C@H](NC(=O)CCCCCCCCCCCCCCCCCCC(=O)O)C(=O)O)C(=O)N[C@@H](CCC(N)=O)C(=O)N[C@@H]([C@@H](C)O)C(=O)N[C@@H](C)C(=O)N[C@@H]([C@@H](C)O)C(=O)N1)[C@@H](C)O [Compound 91, [19CD]-isoGlu-R-C( )-QTAT-C( )-ATDRLAHFLQRSSF-Gly(Me)-A-Ile(Me)-LSSTEVGSGT-Hyp-NH2] ({C20 diacid-γGlu}-RCQTATCATDRLAHFLQRSSF[Sar]A[NMeI]LSSTEVGSGT[Hyp]-NH2; disulfide 2-7)
0.33 nM	0.28 nM	FND	FND	FND	A (A = >90%)	–	A (A = >90%)	–	A (A = >90%)	–	A (A = >90%)	–	CC[C@H](C)[C@@H](C(=O)N[C@@H](CC(C)C)C(=O)N[C@@H](CO)C(=O)N[C@@H](CO)C(=O)N[C@H](C(=O)N[C@@H](CCC(=O)O)C(=O)N[C@H](C(=O)NCC(=O)N[C@@H](CO)C(=O)N[C@@H](CC(N)=O)C(=O)N[C@H](C(=O)N1CCC[C@H]1C(N)=O)[C@@H](C)O)C(C)C)[C@@H](C)O)N(C)C(=O)[C@H](C)NC(=O)CN(C)C(=O)[C@H](Cc1ccccc1)NC(=O)[C@H](CCCNC(=N)N)NC(=O)[C@H](CCC(N)=O)NC(=O)[C@H](CC(C)C)NC(=O)[C@H](Cc1ccccc1)NC(=O)[C@H](Cc1c[nH]cn1)NC(=O)[C@H](C)NC(=O)[C@H](CC(C)C)NC(=O)[C@H](CCCNC(=N)N)NC(=O)[C@H](CCC(=O)O)NC(=O)[C@@H](NC(=O)[C@H](C)NC(=O)[C@@H]1CSSC[C@H](NC(=O)[C@H](CCCNC(=N)N)NC(=O)CC[C@H](NC(=O)CCCCCCCCCCCCCCCCCCC(=O)O)C(=O)O)C(=O)N[C@@H](CCC(N)=O)C(=O)N[C@@H]([C@@H](C)O)C(=O)N[C@@H](C)C(=O)N[C@@H]([C@@H](C)O)C(=O)N1)[C@@H](C)O [Compound 96, [19CD]-isoGlu-R-C( )-QTAT-C( )-ATERLAHFLQRF-Gly(Me)-A-Ile(Me)-LSSTEVGSNTP-NH2] ({C20 diacid-γGlu}-RCQTATCATERLAHFLQRF[Sar]A[NMeI]LSSTEVGSNTP-NH2; disulfide 2-7)
